In US8338565B2, “Macrocyclic compounds for inhibition of tumor necrosis factor alpha” (Ensemble Therapeutics Corporation, priority 2008, dated 2012) one finds IC50 data, which are given here for 28 compounds.

Numbered stars: 1 amine (or outer) side, 2 acyl side, 3 side chain; on linkers, the order of the positions; unused ones are H or OH. Bridge positions count the residues as written; N and C are the ends. Square brackets hold non-standard residues; d marks the D form. Peptide text beside a SMILES is read from it. * marks the point of attachment. Phe(4-CF3) = N[C@@H](Cc1ccc(C(F)(F)F)cc1)C(=O)O; Bip = N[C@@H](Cc1ccc(-c2ccccc2)cc1)C(=O)O; dPhe(4-NH2) = Nc1ccc(C[C@@H](N)C(=O)O)cc1; Nip(3R) = O=C([C@@H]1CCCN([*:1])C1)[*:2]; Phe(4-NH2) = Nc1ccc(C[C@H](N)C(=O)O)cc1; dAla(2-furyl) = N[C@H](Cc1ccco1)C(=O)O; d(hPhe) = N[C@H](CCc1ccccc1)C(=O)O; 2Pal = N[C@@H](Cc1ccccn1)C(=O)O; 3Pal = N[C@@H](Cc1cccnc1)C(=O)O; 4Pal = N[C@@H](Cc1ccncc1)C(=O)O; Malonyl = O=C(CC(=O)[*:2])[*:1]; d3Pal = N[C@H](Cc1cccnc1)C(=O)O; d4Pal = N[C@H](Cc1ccncc1)C(=O)O; d2Thi = N[C@H](Cc1cccs1)C(=O)O; Suc = O=C(CCC(=O)[*:2])[*:1]; X2 = O=C(O)[C@H]1CCCN(*)C1; NMeA = CN[C@@H](C)C(=O)O; Ac3c = NC1(C(=O)O)CC1; Aib = CC(C)(N)C(=O)O; Inp = O=C(O)C1CCNCC1

T1 sequence (P01375 77-233 limits assumed, species assumed): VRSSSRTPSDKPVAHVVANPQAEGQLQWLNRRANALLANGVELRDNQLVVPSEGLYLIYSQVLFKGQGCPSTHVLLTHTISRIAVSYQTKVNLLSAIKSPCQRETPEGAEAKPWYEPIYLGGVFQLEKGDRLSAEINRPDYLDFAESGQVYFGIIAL

The assay addresses T1, TNFα / TNFα receptor (TNFα R1/Fc) (Homo sapiens, UniProt P01375).
T1 construct: purchased R&D Systems
As to the kind of experiment: Inhibition of binding of TNFα to the TNFα receptor (plate ELISA competition). Particulars: Table 2; read-out: Activity (IC50, inhibition of TNFα binding to TNFα R1/Fc). As to the method: The compounds listed in Table 2 below were assayed for ability to inhibit binding of TNFα to the TNFα receptor (TNFα R1/Fc). The assays were performed as described in the following procedure: TNFα (R&D Systems) was coated on high binding plate wells (Corning 96-well) at a single uniform concentration of 15 nM, 100 μL/well in PBS. The coating proceeded for 30 minutes at 37° C. then 10 minutes at 4° C. The coated plate was washed with PBST, then 250 μL/well of blocking solution (PBST 0.1% BSA, bovine serum albumin) was added and incubation proceeded for 30-45 minutes at room temperature with agitation. The solution phase competition proceeded separately with the dilutions of test compound in PBST (phosphate buffered saline with Tween 20), 2% DMSO in a polypropylene plate (Corning 96-well storage plate) with a single concentration, 8.33 nM of the high affinity receptor for TNFα (R&D Systems). This solution phase incubation proceeded for 30 minutes at room temperature with agitation and was then added to the washed TNFα coated assay plate, 100 μL/well, and was incubated for a further 30 minutes at room temperature with agitation. The assay plate was washed and 100 μL goat anti-human IgG (Fc) HRP labeled antibody in PBST, 13 pM, (KPL Cat#04-10-2) was added to each well. This incubation proceeded for 25-30 minutes at room temperature with agitation. Following this incubation step, the plate was washed and a 100 μL TMB solution (SUREBLUE™ TMB Peroxidase substrate, KPL) was added per well and allowed to stand approximately 3-5 minutes for development. The TMB reaction was stopped with the addition of 0.5N HCl and then the plate was read for absorbance at 450 nm.
Background: An ELISA detects its analyte on a solid surface through an enzyme-linked reagent.
`O=C1CCC(=O)N[C@H](CCc2ccccc2)C(=O)N[C@@H](Cc2ccc(C(F)(F)F)cc2)C(=O)N[C@H](Cc2ccccc2)C(=O)N[C@H](C(=O)O)Cc2ccc(cc2)N1` [Compound 2] ([d(hPhe)][Phe(4-CF3)][dF][Phe(4-NH2)]-OH; linker N-4 via Suc): the IC50 was above 100 µM.

With `O=C1CC(=O)N[C@H](Cc2cccs2)C(=O)N[C@@H](Cc2ccc(-c3ccccc3)cc2)C(=O)N[C@H](Cc2ccccc2)C(=O)N[C@H](C(=O)O)Cc2ccc(cc2)N1` [Compound 5] ([d2Thi][Bip][dF][Phe(4-NH2)]-OH; linker N-4 via Malonyl), the IC50 is 30 to 100 µM.

Take `O=C1CCNc2ccc(cc2)C[C@@H](C(=O)O)NC(=O)[C@@H](Cc2ccccc2)NC(=O)[C@H](Cc2ccc(-c3ccccc3)cc2)NC(=O)[C@@H](Cc2cccs2)N1` [Compound 6]: the IC50 is above 100 µM.

Regarding `O=C(O)CN1Cc2cccc(c2)CNC(=O)CCC(=O)N[C@H](Cc2cccs2)C(=O)N[C@@H](Cc2ccc(-c3ccccc3)cc2)C(=O)N[C@H](Cc2ccccc2)C1=O` [Compound 7], the IC50 was above 100 µM.

As to `O=C1COc2ccc(cc2)C[C@@H](C(=O)O)NC(=O)[C@@H](Cc2ccccc2)NC(=O)[C@H](Cc2ccc(-c3ccccc3)cc2)NC(=O)[C@@H](Cc2cccs2)N1` [Compound 8], the IC50 was 30 to 100 µM.

As to `O=C(O)[C@@H]1Cc2ccc(cc2)NC(=O)[C@@H]2CCCC[C@H]2C(=O)N[C@H](Cc2cccs2)C(=O)N[C@@H](Cc2ccc(-c3ccccc3)cc2)C(=O)N[C@H](Cc2ccccc2)C(=O)N1` [Compound 9], the IC50 is 10 to 30 µM.

As to `O=C1CCC(=O)N[C@H](CCc2ccccc2)C(=O)N[C@@H](Cc2ccc(C(F)(F)F)cc2)C(=O)N[C@H](Cc2ccccc2)C(=O)N[C@@H](C(=O)N[C@H](Cc2ccccc2)C(=O)O)Cc2ccc(cc2)N1` [Compound 13] ([d(hPhe)][Phe(4-CF3)][dF][dPhe(4-NH2)][dF]-OH; linker N-4 via Suc), the IC50 is above 100 µM.

As for `CC(C)(NC(=O)[C@H]1Cc2ccc(cc2)NC(=O)CCC(=O)N[C@H](CCc2ccccc2)C(=O)N[C@@H](Cc2ccc(C(F)(F)F)cc2)C(=O)N[C@H](Cc2ccccc2)C(=O)N1)C(=O)O` [Compound 14] ([d(hPhe)][Phe(4-CF3)][dF][dPhe(4-NH2)][Aib]-OH; linker N-4 via Suc), the IC50 lay in the range of 30 to 100 µM.

Regarding `O=C1CCC(=O)N[C@H](CCc2ccccc2)C(=O)N[C@@H](Cc2ccc(C(F)(F)F)cc2)C(=O)N[C@H](Cc2ccccc2)C(=O)N[C@@H](C(=O)NC2(C(=O)O)CC2)Cc2ccc(cc2)N1` [Compound 17] ([d(hPhe)][Phe(4-CF3)][dF][dPhe(4-NH2)][Ac3c]-OH; linker N-4 via Suc), the IC50 fell in the range of 10 to 30 µM.

Turning to `O=C1CCC(=O)N[C@H](Cc2cccs2)C(=O)N[C@@H](Cc2ccc(-c3ccccc3)cc2)C(=O)N[C@H](Cc2ccccc2)C(=O)N[C@H](C(=O)N[C@@H](CO)C(=O)O)Cc2ccc(cc2)N1` [Compound 22] ([d2Thi][Bip][dF][Phe(4-NH2)]S-OH; linker N-4 via Suc), the IC50 was 30 to 100 µM.

Take `O=C1CCC(=O)N[C@H](Cc2cccs2)C(=O)N[C@@H](Cc2ccc(-c3ccccc3)cc2)C(=O)N[C@H](Cc2ccccc2)C(=O)N[C@H](C(=O)N2CCC(C(=O)O)CC2)Cc2ccc(cc2)N1` [Compound 23] ([d2Thi][Bip][dF][Phe(4-NH2)][Inp]-OH; linker N-4 via Suc): the IC50 is above 100 µM.

Take `CC(C)(NC(=O)[C@@H]1Cc2ccc(cc2)NC(=O)CCC(=O)N[C@H](Cc2cccs2)C(=O)N[C@@H](Cc2ccc(-c3ccccc3)cc2)C(=O)N[C@H](Cc2ccccc2)C(=O)N1)C(=O)O` [Compound 25] ([d2Thi][Bip][dF][Phe(4-NH2)][Aib]-OH; linker N-4 via Suc): the IC50 is below 10 µM.

As for `O=C(O)C[C@H](NC(=O)[C@@H]1Cc2ccc(cc2)NC(=O)CCC(=O)N[C@H](Cc2cccs2)C(=O)N[C@@H](Cc2ccc(-c3ccccc3)cc2)C(=O)N[C@H](Cc2ccccc2)C(=O)N1)C(=O)O` [Compound 27] ([d2Thi][Bip][dF][Phe(4-NH2)]D-OH; linker N-4 via Suc), the IC50 is above 100 µM.

In the case of `NCCCC[C@H](NC(=O)[C@@H]1Cc2ccc(cc2)NC(=O)CCC(=O)N[C@H](Cc2cccs2)C(=O)N[C@@H](Cc2ccc(-c3ccccc3)cc2)C(=O)N[C@H](Cc2ccccc2)C(=O)N1)C(=O)O` [Compound 28] ([d2Thi][Bip][dF][Phe(4-NH2)]K-OH; linker N-4 via Suc), the IC50 was below 10 µM.

Consider `C[C@@H](C(=O)O)N(C)C(=O)[C@@H]1Cc2ccc(cc2)NC(=O)CCC(=O)N[C@H](Cc2cccs2)C(=O)N[C@@H](Cc2ccc(-c3ccccc3)cc2)C(=O)N[C@H](Cc2ccccc2)C(=O)N1` [Compound 30] ([d2Thi][Bip][dF][Phe(4-NH2)][NMeA]-OH; linker N-4 via Suc), for which the IC50 was 10 to 30 µM.

As for `O=C1CCC(=O)N[C@H](Cc2cccs2)C(=O)N[C@@H](Cc2ccc(-c3ccccc3)cc2)C(=O)N[C@H](Cc2ccccc2)C(=O)N[C@H](C(=O)N2CCC[C@@H]2C(=O)O)Cc2ccc(cc2)N1` [Compound 32] ([d2Thi][Bip][dF][Phe(4-NH2)][dP]-OH; linker N-4 via Suc), the IC50 is above 100 µM.

As to `O=C1CCC(=O)N[C@H](Cc2cccs2)C(=O)N[C@@H](Cc2ccc(-c3ccccc3)cc2)C(=O)N[C@H](Cc2ccccc2)C(=O)N[C@H](C(=O)N2CCC[C@H](C(=O)O)C2)Cc2ccc(cc2)N1` [Compound 37] ([d2Thi][Bip][dF][Phe(4-NH2)]-X2; linker N-4 via Suc), the IC50 is above 100 µM.

For the compound `O=C1CCC(=O)N[C@H](Cc2cccs2)C(=O)N[C@@H](Cc2ccc(-c3ccccc3)cc2)C(=O)N[C@H](Cc2ccccc2)C(=O)N[C@H](C(=O)N2CCC[C@@H](C(=O)O)C2)Cc2ccc(cc2)N1` [Compound 38] ([d2Thi][Bip][dF][Phe(4-NH2)]-{Nip(3R)}; linker N-4 via Suc), the IC50 was 30 to 100 µM.

With `O=C1CCC(=O)N[C@H](Cc2cccs2)C(=O)N[C@@H](Cc2ccc(-c3ccccc3)cc2)C(=O)N[C@H](Cc2ccccc2)C(=O)N[C@H](C(=O)O)CCCCN1` [Compound 42] ([d2Thi][Bip][dF]K-OH; linker N-4 via Suc), the IC50 was above 100 µM.

Take `C[C@H]1NC(=O)[C@H](Cc2ccc(-c3ccccc3)cc2)NC(=O)[C@@H](Cc2cccs2)NC(=O)CCC(=O)Nc2ccc(cc2)C[C@@H](C(=O)O)NC1=O` [Compound 44] ([d2Thi][Bip][dA][Phe(4-NH2)]-OH; linker N-4 via Suc): the IC50 was above 100 µM.

As to `C[C@@H]1NC(=O)[C@@H](Cc2cccs2)NC(=O)CCC(=O)Nc2ccc(cc2)C[C@@H](C(=O)O)NC(=O)[C@@H](Cc2ccccc2)NC1=O` [Compound 45] ([d2Thi]A[dF][Phe(4-NH2)]-OH; linker N-4 via Suc), the IC50 is above 100 µM.

With `C[C@H]1NC(=O)CCC(=O)Nc2ccc(cc2)C[C@@H](C(=O)O)NC(=O)[C@@H](Cc2ccccc2)NC(=O)[C@H](Cc2ccc(-c3ccccc3)cc2)NC1=O` [Compound 46] ([dA][Bip][dF][Phe(4-NH2)]-OH; linker N-4 via Suc), the IC50 was above 100 µM.

Turning to `O=C1CCC(=O)N[C@H](Cc2cccs2)C(=O)N[C@@H](Cc2ccc(-c3ccccc3)cc2)C(=O)N[C@H](Cc2ccco2)C(=O)N[C@H](C(=O)O)Cc2ccc(cc2)N1` [Compound 48] ([d2Thi][Bip][dAla(2-furyl)][Phe(4-NH2)]-OH; linker N-4 via Suc), the IC50 is 10 to 30 µM.

As to `O=C1CCC(=O)N[C@H](Cc2cccs2)C(=O)N[C@@H](Cc2ccc(-c3ccccc3)cc2)C(=O)N[C@@H](Cc2ccncc2)C(=O)N[C@H](C(=O)O)Cc2ccc(cc2)N1` [Compound 49] ([d2Thi][Bip][4Pal][Phe(4-NH2)]-OH; linker N-4 via Suc), the IC50 was above 100 µM.

In the case of `O=C1CCC(=O)N[C@H](Cc2cccs2)C(=O)N[C@@H](Cc2ccc(-c3ccccc3)cc2)C(=O)N[C@H](Cc2ccncc2)C(=O)N[C@H](C(=O)O)Cc2ccc(cc2)N1` [Compound 50] ([d2Thi][Bip][d4Pal][Phe(4-NH2)]-OH; linker N-4 via Suc), the IC50 is above 100 µM.

Regarding `O=C1CCC(=O)N[C@H](Cc2cccs2)C(=O)N[C@@H](Cc2ccc(-c3ccccc3)cc2)C(=O)N[C@H](Cc2cccnc2)C(=O)N[C@H](C(=O)O)Cc2ccc(cc2)N1` [Compound 51] ([d2Thi][Bip][d3Pal][Phe(4-NH2)]-OH; linker N-4 via Suc), the IC50 was above 100 µM.

For the compound `O=C1CCC(=O)N[C@H](Cc2cccs2)C(=O)N[C@@H](Cc2ccc(-c3ccccc3)cc2)C(=O)N[C@@H](Cc2cccnc2)C(=O)N[C@H](C(=O)O)Cc2ccc(cc2)N1` [Compound 52] ([d2Thi][Bip][3Pal][Phe(4-NH2)]-OH; linker N-4 via Suc), the IC50 is above 100 µM.

`O=C1CCC(=O)N[C@H](Cc2cccs2)C(=O)N[C@@H](Cc2ccc(-c3ccccc3)cc2)C(=O)N[C@@H](Cc2ccccn2)C(=O)N[C@H](C(=O)O)Cc2ccc(cc2)N1` [Compound 53] ([d2Thi][Bip][2Pal][Phe(4-NH2)]-OH; linker N-4 via Suc): the IC50 is above 100 µM.
